SMILES strings stand for the structures. Bounds are passed on as bounds.

Test [1] concerns the target Serine/threonine-protein kinase Chk2 (Homo sapiens) (UniProt O96017). As to the kind of experiment: Selectivity interaction (KinomeScan (DiscoverX)) EUB0000607a CHEK2. The conditions noted are these: at 10 µM.
Test [2] addresses Glycogen synthase kinase-3 beta (Homo sapiens, UniProt P49841). As to the kind of experiment: Selectivity interaction (KinomeScan (DiscoverX)) EUB0001079a GSK3B. As to conditions: at 1 µM.
In test [3] the target is Sigma non-opioid intracellular receptor 1 (Homo sapiens) (UniProt Q99720). As to the kind of experiment: Selectivity interaction (GPCR panel (PDSP screen)) EUB0001079a SIGMAR1. As to conditions: at 10 µM.
Test [4] deals with Tyrosine-protein kinase JAK1 (Homo sapiens, UniProt P23458). As to the kind of experiment: Selectivity interaction (ActivX KiNativ screen (ex vivo kinase selectivity in human PBMCs)) EUB0001619a JAK1. It is filed as cell-based. The conditions noted are these: PBMC, at 1 µM.
The target in test [5] is Tyrosine-protein kinase ABL1 (Homo sapiens, UniProt P00519). As to the kind of experiment: Selectivity interaction (Kinase panel (Invitrogen)) EUB0000639a ABL1. As to conditions: at 200 nM.
Test [6] has as its target T1, Scaffold protein ILK (Homo sapiens) (UniProt Q13418).
T1 sequence (whole entry): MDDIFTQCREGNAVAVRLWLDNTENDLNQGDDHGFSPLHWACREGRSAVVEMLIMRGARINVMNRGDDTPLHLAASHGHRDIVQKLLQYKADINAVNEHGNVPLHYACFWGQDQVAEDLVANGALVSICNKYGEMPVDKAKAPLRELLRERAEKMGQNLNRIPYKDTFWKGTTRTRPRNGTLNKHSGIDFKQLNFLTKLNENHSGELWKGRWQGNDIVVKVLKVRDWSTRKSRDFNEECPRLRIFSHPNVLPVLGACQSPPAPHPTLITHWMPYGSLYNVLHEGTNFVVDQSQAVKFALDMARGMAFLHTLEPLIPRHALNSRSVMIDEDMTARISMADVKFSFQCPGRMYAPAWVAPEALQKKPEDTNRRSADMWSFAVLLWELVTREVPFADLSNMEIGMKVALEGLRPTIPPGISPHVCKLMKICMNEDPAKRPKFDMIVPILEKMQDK
As to the kind of experiment: Selectivity interaction (ActivX KiNativ screen (kinase selectivity in THP-1 cell lysates)) EUB0000639a ILK. As to conditions: lysate, at 0.01 µM. It is filed as subcellular.

The target in test [7] is Cyclin-dependent kinase 16 (Homo sapiens) (UniProt Q00536). As to the kind of experiment: Selectivity interaction (ActivX KiNativ screen (kinase selectivity in THP-1 cell lysates)) EUB0000639a CDK16. It is filed as subcellular. The conditions noted are these: lysate, at 0.01 µM.
In test [8] the target is T2, cAMP-dependent protein kinase catalytic subunit PRKX (Homo sapiens) (UniProt P51817).
T2 sequence (whole entry): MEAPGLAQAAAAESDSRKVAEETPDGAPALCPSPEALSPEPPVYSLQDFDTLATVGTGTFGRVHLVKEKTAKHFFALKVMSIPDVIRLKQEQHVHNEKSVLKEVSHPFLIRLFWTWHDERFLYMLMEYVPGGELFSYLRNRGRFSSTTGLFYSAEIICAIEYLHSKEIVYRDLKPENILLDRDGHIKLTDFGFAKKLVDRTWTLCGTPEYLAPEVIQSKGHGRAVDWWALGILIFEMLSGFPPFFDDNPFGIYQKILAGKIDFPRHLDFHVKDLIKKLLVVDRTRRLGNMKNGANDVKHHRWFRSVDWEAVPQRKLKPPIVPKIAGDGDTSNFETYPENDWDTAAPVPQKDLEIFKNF
As to the kind of experiment: Selectivity interaction (Kinase panel (Invitrogen)) EUB0000639a PRKX. As to conditions: at 200 nM.

For test [9], the target named is T3, Tyrosine-protein kinase Tec (Homo sapiens) (UniProt P42680).
T3 sequence (whole entry): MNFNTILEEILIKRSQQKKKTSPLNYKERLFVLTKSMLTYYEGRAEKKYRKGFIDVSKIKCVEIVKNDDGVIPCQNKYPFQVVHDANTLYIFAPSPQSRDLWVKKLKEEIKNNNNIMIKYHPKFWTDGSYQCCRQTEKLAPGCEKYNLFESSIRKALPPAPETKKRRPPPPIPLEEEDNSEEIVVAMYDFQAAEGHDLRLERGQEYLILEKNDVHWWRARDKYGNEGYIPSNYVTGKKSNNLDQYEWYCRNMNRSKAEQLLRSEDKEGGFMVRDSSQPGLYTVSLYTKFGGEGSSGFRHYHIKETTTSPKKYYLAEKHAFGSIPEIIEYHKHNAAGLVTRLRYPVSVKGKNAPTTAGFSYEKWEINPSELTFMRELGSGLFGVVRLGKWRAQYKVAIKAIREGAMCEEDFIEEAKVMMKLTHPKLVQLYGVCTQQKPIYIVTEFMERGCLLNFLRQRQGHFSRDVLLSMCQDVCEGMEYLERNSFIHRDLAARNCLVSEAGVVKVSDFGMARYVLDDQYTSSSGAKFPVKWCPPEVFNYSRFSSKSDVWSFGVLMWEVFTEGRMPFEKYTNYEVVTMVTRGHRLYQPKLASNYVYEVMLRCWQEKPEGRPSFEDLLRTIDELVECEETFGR
As to the kind of experiment: Selectivity interaction (ActivX KiNativ screen (kinase selectivity in THP-1 cell lysates)) EUB0000639a TEC. It is filed as subcellular. The conditions noted are these: lysate, at 0.04 µM.

For test [10], the target named is Cyclin-dependent kinase 7 (Homo sapiens, UniProt P50613). As to conditions: at 10 µM.
Test [11] concerns the target Histone acetyltransferase p300 (Homo sapiens) (UniProt Q09472). As to the kind of experiment: Selectivity interaction (Human bromodomain panel (DSF assay)) EUB0000233b EP300.
In test [12] the target is Transcription initiation factor TFIID subunit 1-like (Homo sapiens) (UniProt Q8IZX4). As to the kind of experiment: Selectivity interaction (Human bromodomain panel (DSF assay)) EUB0000233b TAF1L. A general note: DSF heats the sample and reads unfolding from a dye or from intrinsic fluorescence.
Test [13] addresses Ribosomal protein S6 kinase alpha-1 (Homo sapiens, UniProt Q15418). As to the kind of experiment: Selectivity interaction (KinomeScan (DiscoverX)) EUB0000092b RPS6KA1. The conditions noted are these: at 10 µM.
The target of test [14] is T4, Aurora kinase A (Homo sapiens) (UniProt O14965).
T4 sequence (whole entry): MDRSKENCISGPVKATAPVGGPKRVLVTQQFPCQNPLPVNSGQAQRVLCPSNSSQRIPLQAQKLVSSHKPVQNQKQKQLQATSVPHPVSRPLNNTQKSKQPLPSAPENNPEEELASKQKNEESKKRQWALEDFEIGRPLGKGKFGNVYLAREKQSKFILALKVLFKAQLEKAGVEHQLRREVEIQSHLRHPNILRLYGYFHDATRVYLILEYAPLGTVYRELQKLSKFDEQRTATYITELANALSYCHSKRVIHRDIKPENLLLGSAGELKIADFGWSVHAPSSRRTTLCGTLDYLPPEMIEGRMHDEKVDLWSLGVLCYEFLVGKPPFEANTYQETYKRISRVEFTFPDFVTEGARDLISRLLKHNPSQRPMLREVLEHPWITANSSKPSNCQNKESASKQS
As to the kind of experiment: Selectivity interaction (KinomeScan (DiscoverX)) EUB0000045b STK6.

Test [15] has as its target Epidermal growth factor receptor (Homo sapiens, UniProt P00533). As to the kind of experiment: Selectivity interaction (Upstate Kinase Profiler service (Millipore)) EUB0000056c EGFR. As to conditions: at 1 µM.
The target in test [16] is T2, cAMP-dependent protein kinase catalytic subunit PRKX (Homo sapiens). As to conditions: at 10 µM.

Sequence of Tyrosine-protein kinase JAK1 (P23458 whole entry): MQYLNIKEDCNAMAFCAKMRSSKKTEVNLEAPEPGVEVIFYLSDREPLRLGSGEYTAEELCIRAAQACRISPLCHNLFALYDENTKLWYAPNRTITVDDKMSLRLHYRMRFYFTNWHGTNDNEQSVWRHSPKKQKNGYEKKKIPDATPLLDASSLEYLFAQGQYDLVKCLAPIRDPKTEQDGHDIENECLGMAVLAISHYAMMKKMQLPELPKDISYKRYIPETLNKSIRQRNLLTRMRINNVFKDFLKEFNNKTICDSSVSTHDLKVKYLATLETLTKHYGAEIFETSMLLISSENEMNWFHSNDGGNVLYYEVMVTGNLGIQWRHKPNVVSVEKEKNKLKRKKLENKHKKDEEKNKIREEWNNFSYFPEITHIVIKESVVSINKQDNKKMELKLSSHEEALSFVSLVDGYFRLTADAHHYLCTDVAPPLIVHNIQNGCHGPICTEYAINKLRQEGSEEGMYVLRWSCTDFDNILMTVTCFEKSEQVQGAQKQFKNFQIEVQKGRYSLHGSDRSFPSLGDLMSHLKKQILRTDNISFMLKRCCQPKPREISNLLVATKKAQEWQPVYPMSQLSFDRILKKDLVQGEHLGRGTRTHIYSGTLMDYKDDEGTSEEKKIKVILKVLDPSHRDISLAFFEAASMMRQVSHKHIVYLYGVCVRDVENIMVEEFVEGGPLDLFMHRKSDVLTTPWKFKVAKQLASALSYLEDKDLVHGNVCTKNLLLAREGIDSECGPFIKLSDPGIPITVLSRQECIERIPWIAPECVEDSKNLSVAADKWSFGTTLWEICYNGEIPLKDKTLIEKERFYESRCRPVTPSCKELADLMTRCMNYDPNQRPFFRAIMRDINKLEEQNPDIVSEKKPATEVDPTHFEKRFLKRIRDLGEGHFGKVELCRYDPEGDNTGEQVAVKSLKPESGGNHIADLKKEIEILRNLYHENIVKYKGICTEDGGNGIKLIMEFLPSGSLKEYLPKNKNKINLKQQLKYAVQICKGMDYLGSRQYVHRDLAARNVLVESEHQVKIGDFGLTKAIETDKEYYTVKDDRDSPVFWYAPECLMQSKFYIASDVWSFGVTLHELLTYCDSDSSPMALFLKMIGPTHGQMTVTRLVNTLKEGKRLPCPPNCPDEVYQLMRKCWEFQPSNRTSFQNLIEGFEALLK
Sequence of Histone acetyltransferase p300 (Homo sapiens) (Q09472 whole entry): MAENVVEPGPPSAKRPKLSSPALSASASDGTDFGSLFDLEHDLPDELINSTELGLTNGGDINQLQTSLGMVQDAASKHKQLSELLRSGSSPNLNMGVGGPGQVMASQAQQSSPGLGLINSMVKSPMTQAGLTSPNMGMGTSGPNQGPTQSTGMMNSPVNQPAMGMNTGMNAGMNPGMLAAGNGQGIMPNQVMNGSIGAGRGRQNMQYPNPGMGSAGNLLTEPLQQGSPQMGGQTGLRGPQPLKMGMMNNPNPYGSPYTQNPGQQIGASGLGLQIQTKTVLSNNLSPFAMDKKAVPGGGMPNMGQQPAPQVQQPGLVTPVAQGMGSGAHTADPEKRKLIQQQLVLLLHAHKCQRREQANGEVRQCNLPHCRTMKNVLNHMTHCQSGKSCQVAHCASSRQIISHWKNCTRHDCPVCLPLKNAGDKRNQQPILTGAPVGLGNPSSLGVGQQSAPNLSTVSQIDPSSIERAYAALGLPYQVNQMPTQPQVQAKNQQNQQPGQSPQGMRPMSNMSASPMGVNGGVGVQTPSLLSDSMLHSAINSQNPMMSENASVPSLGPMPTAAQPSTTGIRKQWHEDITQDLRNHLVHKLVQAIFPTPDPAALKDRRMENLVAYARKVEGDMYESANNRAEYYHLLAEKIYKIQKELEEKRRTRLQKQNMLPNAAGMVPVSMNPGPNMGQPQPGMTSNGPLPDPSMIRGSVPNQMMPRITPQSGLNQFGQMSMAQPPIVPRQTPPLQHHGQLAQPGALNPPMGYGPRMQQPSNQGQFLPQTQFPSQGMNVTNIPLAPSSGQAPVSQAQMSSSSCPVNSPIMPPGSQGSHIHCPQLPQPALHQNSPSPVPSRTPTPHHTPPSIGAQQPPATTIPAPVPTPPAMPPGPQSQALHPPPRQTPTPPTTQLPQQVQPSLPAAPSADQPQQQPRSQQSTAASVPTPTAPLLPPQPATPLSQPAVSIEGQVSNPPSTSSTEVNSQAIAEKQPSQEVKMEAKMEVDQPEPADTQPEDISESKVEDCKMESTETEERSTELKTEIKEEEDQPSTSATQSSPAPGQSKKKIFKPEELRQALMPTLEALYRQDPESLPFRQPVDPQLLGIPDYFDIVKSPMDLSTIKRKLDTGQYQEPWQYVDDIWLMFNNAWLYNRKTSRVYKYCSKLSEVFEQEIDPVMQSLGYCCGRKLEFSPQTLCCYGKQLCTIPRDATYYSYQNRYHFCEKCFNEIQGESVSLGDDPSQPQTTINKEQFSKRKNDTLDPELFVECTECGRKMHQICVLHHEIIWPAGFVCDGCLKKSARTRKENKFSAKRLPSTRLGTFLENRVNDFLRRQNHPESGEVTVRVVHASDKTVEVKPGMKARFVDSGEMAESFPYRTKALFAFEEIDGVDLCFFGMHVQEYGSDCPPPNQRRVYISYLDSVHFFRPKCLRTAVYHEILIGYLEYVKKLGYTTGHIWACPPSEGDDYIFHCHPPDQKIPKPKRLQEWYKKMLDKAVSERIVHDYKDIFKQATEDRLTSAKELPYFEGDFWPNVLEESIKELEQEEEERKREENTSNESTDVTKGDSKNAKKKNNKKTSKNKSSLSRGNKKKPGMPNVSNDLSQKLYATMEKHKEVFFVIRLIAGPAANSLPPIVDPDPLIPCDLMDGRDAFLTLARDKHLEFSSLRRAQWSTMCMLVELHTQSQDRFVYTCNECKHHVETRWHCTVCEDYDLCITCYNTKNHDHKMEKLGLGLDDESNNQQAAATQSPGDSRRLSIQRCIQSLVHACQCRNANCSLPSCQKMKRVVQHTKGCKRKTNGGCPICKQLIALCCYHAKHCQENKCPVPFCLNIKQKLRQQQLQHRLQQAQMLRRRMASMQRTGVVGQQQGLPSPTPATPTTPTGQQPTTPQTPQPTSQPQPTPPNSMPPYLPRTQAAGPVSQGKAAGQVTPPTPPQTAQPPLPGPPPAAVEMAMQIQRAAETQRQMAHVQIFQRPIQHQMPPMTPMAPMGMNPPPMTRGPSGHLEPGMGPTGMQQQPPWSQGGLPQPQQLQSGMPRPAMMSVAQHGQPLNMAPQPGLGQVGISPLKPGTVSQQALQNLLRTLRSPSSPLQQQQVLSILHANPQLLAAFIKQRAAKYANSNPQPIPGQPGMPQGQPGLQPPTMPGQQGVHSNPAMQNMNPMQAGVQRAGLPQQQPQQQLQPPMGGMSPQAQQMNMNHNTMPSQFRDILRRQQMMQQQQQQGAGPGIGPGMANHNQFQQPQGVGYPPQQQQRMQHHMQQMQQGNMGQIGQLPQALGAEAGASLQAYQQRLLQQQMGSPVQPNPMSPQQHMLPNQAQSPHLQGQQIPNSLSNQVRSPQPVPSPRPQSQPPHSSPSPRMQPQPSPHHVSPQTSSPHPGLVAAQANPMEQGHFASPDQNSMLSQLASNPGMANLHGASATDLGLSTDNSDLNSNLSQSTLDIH
Sequence of Epidermal growth factor receptor (P00533 whole entry): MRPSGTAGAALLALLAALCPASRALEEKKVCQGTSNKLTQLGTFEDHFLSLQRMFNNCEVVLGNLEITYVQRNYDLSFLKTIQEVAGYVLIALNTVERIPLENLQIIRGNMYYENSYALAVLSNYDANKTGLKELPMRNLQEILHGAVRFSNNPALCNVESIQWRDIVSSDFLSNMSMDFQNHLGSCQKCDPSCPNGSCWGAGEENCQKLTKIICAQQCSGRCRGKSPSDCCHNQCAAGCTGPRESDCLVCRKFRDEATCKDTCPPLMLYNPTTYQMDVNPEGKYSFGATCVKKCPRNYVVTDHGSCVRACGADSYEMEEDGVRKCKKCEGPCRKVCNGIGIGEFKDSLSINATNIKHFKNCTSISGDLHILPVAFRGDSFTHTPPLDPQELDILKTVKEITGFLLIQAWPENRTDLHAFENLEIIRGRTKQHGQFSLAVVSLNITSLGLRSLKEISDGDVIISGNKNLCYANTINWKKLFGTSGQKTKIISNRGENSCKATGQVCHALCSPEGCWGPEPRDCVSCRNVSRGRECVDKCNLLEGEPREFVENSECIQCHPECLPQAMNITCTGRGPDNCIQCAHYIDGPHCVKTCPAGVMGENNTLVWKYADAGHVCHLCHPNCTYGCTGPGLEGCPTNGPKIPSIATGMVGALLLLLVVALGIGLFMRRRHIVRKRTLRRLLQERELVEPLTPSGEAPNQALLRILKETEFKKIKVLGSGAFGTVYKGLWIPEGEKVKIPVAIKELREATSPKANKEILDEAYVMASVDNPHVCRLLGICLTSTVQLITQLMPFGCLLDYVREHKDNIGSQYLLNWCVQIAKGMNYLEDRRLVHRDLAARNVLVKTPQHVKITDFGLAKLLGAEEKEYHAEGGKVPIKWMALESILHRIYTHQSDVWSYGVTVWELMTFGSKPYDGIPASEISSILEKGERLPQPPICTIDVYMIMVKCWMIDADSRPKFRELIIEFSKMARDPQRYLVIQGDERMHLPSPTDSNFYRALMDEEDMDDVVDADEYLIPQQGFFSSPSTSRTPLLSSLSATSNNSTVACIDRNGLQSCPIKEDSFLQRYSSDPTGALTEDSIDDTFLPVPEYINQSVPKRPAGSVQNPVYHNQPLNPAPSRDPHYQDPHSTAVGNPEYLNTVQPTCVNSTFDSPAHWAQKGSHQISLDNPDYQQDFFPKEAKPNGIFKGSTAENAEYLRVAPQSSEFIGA
Sequence of Cyclin-dependent kinase 7 (P50613 whole entry): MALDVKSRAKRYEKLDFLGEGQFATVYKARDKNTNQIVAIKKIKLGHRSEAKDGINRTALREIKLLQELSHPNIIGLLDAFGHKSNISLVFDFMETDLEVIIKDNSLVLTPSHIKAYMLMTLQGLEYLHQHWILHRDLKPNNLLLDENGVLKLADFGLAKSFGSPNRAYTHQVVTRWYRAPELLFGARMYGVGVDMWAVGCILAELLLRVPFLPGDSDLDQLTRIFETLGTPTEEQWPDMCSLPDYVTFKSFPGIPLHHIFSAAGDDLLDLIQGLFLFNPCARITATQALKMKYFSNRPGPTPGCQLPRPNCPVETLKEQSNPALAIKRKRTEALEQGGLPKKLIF

As for `CNC(=O)Nc1ccc(-c2nc(N3CC4CCC(C3)O4)c3cnn(C4CCC5(CC4)OCCO5)c3n2)cc1`, the % of control in test [1] was found to be 84%.
In test [2], `Nc1cnc(N2CCc3cc(S(=O)(=O)Nc4c(F)cc(Cl)cc4F)cc(N4CCCC4=O)c32)nc1` [TP-020n] had a % of control of 100%. For the same compound, the % of inhibition in test [3] was -14.4%.
On to `N#Cc1cccc(-c2c[nH]c3ncnc(N4CCOCC4)c23)c1`, for which, in test [4], the % of inhibition was 19%.
On to `CC[C@@H]1[C@H](F)C(=O)N[C@@H]1COc1nccc2cc(C(N)=O)c(OC)cc12` [ZIMLOVISERTIB], for which the % of inhibition was 2.34% in test [5]; 3.1% in test [6]; -0.6% in test [7]; 11.1% in test [8]; -59.8% in test [9].
In test [10], `CCN(CC)CCCCNc1ncc2cc(-c3cc(OC)cc(OC)c3)c(NC(=O)NC(C)(C)C)nc2n1` showed a % of control of 100%.
In the case of `CN(C)CCCOc1ccc(-c2cc(NCCCn3cccn3)nc(S(C)(=O)=O)n2)cc1`, the dTM in [11] and in test [12] was less than 2 K throughout.
On to `CCC(=O)N1CCN(c2ccc(-n3c(=O)ccc4cnc5ccc(-c6cnc7ccccc7c6)cc5c43)cc2C(F)(F)F)CC1`, for which the % of control in test [13] was determined as 100%.
On to `C=CC(=O)Nc1cc(-n2c(=O)ccc3cnc4ccc(-c5ccc(NS(C)(=O)=O)cc5)cc4c32)ccc1C`, for which the % of control in test [14] (at 1 µM) came out at 75%; in test [14] (at 10 µM) it was 100%.
For `Cc1ccc(-c2ccc3c(ccc4sc5c(c43)NC[C@@H](C)NC5=O)n2)cn1`, in test [15], the % of inhibition was -2%.
In turn, `COCC(=O)NC/C=C/c1ccc2ncnc(Nc3ccc(Oc4ccc(C)nc4)c(C)c3)c2c1` [CP-724714] yielded a % of control in [16] of 100%.

The values above are taken from ChEMBL document CHEMBL5465560, “Selectivity Literature for EUbOPEN Chemogenomic Library” (2024).
